Assay results from ChEMBL document CHEMBL1201862, “PubChem BioAssay data set” (2004).
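Compound exposure: 48 hours, 5 concentrations, 96-well plates. GI50 = concentration required for 50% inhibition of growth.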 Activity calls are given as the source filed them. Cut-off read from the data, not from the text of the source: active = GI50 up to about 1.1 µM and inactive = higher.

What was measured:
Test in all cases: inhibition of tumour cell growth, NCI panel, 48 h
DU-145 = test system: DU-145
EKVX = test system: EKVX
HOP-62 = test system: HOP-62
HOP-92 = test system: HOP-92
Hs-578T = test system: Hs-578T
IGROV-1 = test system: IGROV-1
M14 = test system: M14
MDA-N = test system: MDA-N
Malme-3M = test system: Malme-3M
NCI-H460 = test system: NCI-H460
NCI-H522 = test system: NCI-H522
OVCAR-3 = test system: OVCAR-3
OVCAR-5 = test system: OVCAR-5
SF-268 = test system: SF-268
SF-295 = test system: SF-295
SK-MEL-2 = test system: SK-MEL-2
SNB-75 = test system: SNB-75
T47D = test system: T47D
U-251 = test system: U-251
UO-31 = test system: UO-31

Row | SMILES | GI50 (DU-145) | GI50 (EKVX) | GI50 (HOP-62) | GI50 (HOP-92) | GI50 (Hs-578T) | GI50 (IGROV-1) | GI50 (M14) | GI50 (MDA-N) | GI50 (Malme-3M) | GI50 (NCI-H460) | GI50 (NCI-H522) | GI50 (OVCAR-3) | GI50 (OVCAR-5) | GI50 (SF-268) | GI50 (SF-295) | GI50 (SK-MEL-2) | GI50 (SNB-75) | GI50 (T47D) | GI50 (U-251) | GI50 (UO-31)
1 | CCOP(=O)(O)C(Nc1ccc(/N=N/c2ccccc2)cc1)c1cccc(C(Nc2ccc(/N=N/c3ccccc3)cc2)P(=O)(O)OCC)c1 (stereo not given) | 80.9 µM (inactive) | 57.4 µM (inactive) | 25.3 µM (inactive) | 41.4 µM (inactive) | 38.7 µM (inactive) | 56.5 µM (inactive) | 40.6 µM (inactive) | 60.5 µM (inactive) | > 100 µM (inactive) | 33.3 µM (inactive) | 20.8 µM (inactive) | 55.3 µM (inactive) | 40.6 µM (inactive) | 69.8 µM (inactive) | 24 µM (inactive) | 45.2 µM (inactive) | 44.4 µM (inactive) | 18.4 µM (inactive) | 31.2 µM (inactive) | 30 µM (inactive)
2 | CN(C)NC1=NS(=O)(=O)c2cc3c(=O)n(C)[nH]c3cc2S1 | > 10 µM (inactive) | > 10 µM (inactive) | > 10 µM (inactive) | > 10 µM (inactive) | > 10 µM (inactive) | > 10 µM (inactive) | > 10 µM (inactive) | > 10 µM (inactive) | > 10 µM (inactive) | > 10 µM (inactive) | > 10 µM (inactive) | > 10 µM (inactive) | > 10 µM (inactive) | > 10 µM (inactive) | > 10 µM (inactive) | > 10 µM (inactive) | > 10 µM (inactive) | > 10 µM (inactive) | > 10 µM (inactive) | > 10 µM (inactive)
3 | NC(CC(=O)Nc1cc(C(F)(F)F)ccc1Cl)=NO | > 100 µM (inactive) | > 100 µM (inactive) | > 100 µM (inactive) | > 100 µM (inactive) | > 100 µM (inactive) | > 100 µM (inactive) | > 100 µM (inactive) | > 100 µM (inactive) | > 100 µM (inactive) | > 100 µM (inactive) | > 100 µM (inactive) | > 100 µM (inactive) | > 100 µM (inactive) | > 100 µM (inactive) | > 100 µM (inactive) | > 100 µM (inactive) | > 100 µM (inactive) | > 100 µM (inactive) | > 100 µM (inactive) | > 100 µM (inactive)
4 | CCOC(=O)c1ccc(/N=c2\oc3ccc(OC)cc3cc2-c2nc3ccccc3[nH]2)cc1 | > 100 µM (inactive) | > 100 µM (inactive) | 54.6 µM (inactive) | > 100 µM (inactive) | 79.8 µM (inactive) | > 100 µM (inactive) | 65.3 µM (inactive) | 55 µM (inactive) | > 100 µM (inactive) | > 100 µM (inactive) | 71.6 µM (inactive) | > 100 µM (inactive) | 54.3 µM (inactive) | > 100 µM (inactive) | 62.8 µM (inactive) | > 100 µM (inactive) | 14.1 µM (inactive) | > 100 µM (inactive) | 31.4 µM (inactive) | > 100 µM (inactive)
5 | COc1c(OC)c(OC)c2c(=O)cc(-c3ccc(OC(C)C)cc3)oc2c1OC | 26.1 µM (inactive) | 26.4 µM (inactive) | 18.5 µM (inactive) | 8.17 µM (inactive) | 23.1 µM (inactive) | > 42.6 µM (inactive) | 19.1 µM (inactive) | 31.8 µM (inactive) | 29.4 µM (inactive) | 27.4 µM (inactive) | 20.9 µM (inactive) | 17.9 µM (inactive) | 18.8 µM (inactive) | > 35.9 µM (inactive) | 29.4 µM (inactive) | 20.8 µM (inactive) | > 35.2 µM (inactive) | 7.03 µM (inactive) | > 37.2 µM (inactive) | 18.2 µM (inactive)
6 | O=C(O)C(Cc1c[nH]cn1)N1C(=O)c2ccccc2C1=O (stereo not given) | > 100 µM (inactive) | > 100 µM (inactive) | 12.9 µM (inactive) | > 100 µM (inactive) | > 100 µM (inactive) | > 100 µM (inactive) | > 100 µM (inactive) | > 100 µM (inactive) | 18.9 µM (inactive) | > 100 µM (inactive) | > 100 µM (inactive) | 50.5 µM (inactive) | > 100 µM (inactive) | > 100 µM (inactive) | 30 µM (inactive) | 6.19 µM (inactive) | > 100 µM (inactive) | > 100 µM (inactive) | > 100 µM (inactive) | > 100 µM (inactive)
7 | CCCn1c(=O)c2nn3c(=O)n(CCC)c(=O)c3nn2c1=O | > 100 µM (inactive) | > 100 µM (inactive) | > 100 µM (inactive) | > 100 µM (inactive) | > 100 µM (inactive) | > 100 µM (inactive) | > 100 µM (inactive) | > 100 µM (inactive) | > 100 µM (inactive) | > 100 µM (inactive) | > 100 µM (inactive) | > 100 µM (inactive) | > 100 µM (inactive) | > 100 µM (inactive) | > 100 µM (inactive) | > 100 µM (inactive) | > 100 µM (inactive) | > 100 µM (inactive) | > 100 µM (inactive) | > 100 µM (inactive)
8 | [O-]c1c2cc(-[n+]3c(-c4ccccc4)cc(-c4ccccc4)cc3-c3ccccc3)cc1CO[C@@H](c1ccccc1)[C@H](c1ccccc1)OCCOCCO[C@@H](c1ccccc1)[C@H](c1ccccc1)OC2 | 0.284 µM (active) | 0.109 µM (active) | 0.129 µM (active) | 0.0857 µM (active) | 0.0652 µM (active) | 0.0455 µM (active) | 0.0687 µM (active) | 0.0426 µM (active) | 0.0407 µM (active) | 0.0363 µM (active) | 0.0264 µM (active) | 0.0324 µM (active) | 0.453 µM (active) | 0.0635 µM (active) | 0.0719 µM (active) | 0.0394 µM (active) | 0.0486 µM (active) | 0.0344 µM (active) | 0.0297 µM (active) | 0.379 µM (active)
9 | c1ccc(CN2CCCN3CCN(CCCN(Cc4ccccc4)CC3)CC2)cc1 | 68.5 µM (inactive) | 41.9 µM (inactive) | > 100 µM (inactive) | 92 µM (inactive) | > 100 µM (inactive) | 60 µM (inactive) | 38 µM (inactive) | 30.5 µM (inactive) | 0.227 µM (active) | 39.4 µM (inactive) | 36.1 µM (inactive) | 27.2 µM (inactive) | > 100 µM (inactive) | 78.7 µM (inactive) | 87.7 µM (inactive) | 22.2 µM (inactive) | 32 µM (inactive) | 35.7 µM (inactive) | 36.4 µM (inactive) | > 100 µM (inactive)
10 | O=C1C=CC(=O)N1c1ccc2c(c1)Cc1cc(NC(=O)C(F)(F)F)ccc1-2 | 16 µM (inactive) | 14.9 µM (inactive) | 20.1 µM (inactive) | 16.8 µM (inactive) | 21.1 µM (inactive) | 16.6 µM (inactive) | 20.9 µM (inactive) | 17.1 µM (inactive) | 19.8 µM (inactive) | > 100 µM (inactive) | 5.09 µM (inactive) | 15.7 µM (inactive) | 16.7 µM (inactive) | 19.1 µM (inactive) | > 100 µM (inactive) | 18.4 µM (inactive) | 16.1 µM (inactive) | 17.9 µM (inactive) | 18.2 µM (inactive) | 13.6 µM (inactive)
11 | N#Cc1c(N2CCCC2)nsc1NCc1ccccc1 | > 100 µM (inactive) | > 100 µM (inactive) | > 100 µM (inactive) | 54.1 µM (inactive) | 60.4 µM (inactive) | > 100 µM (inactive) | > 100 µM (inactive) | > 100 µM (inactive) | > 100 µM (inactive) | > 100 µM (inactive) | > 100 µM (inactive) | > 100 µM (inactive) | > 100 µM (inactive) | > 100 µM (inactive) | > 100 µM (inactive) | > 100 µM (inactive) | > 100 µM (inactive) | 74.6 µM (inactive) | > 100 µM (inactive) | 4.14 µM (inactive)
